Results published in US20260069530A1, “METHODS OF TREATING PRIMARY LIVER TUMORS WITH NATURAL KILLER CELLS EXPRESSING A CYTOTOXIC RECEPTOR COMPLEX” (NKARTA, INC., priority 2018, published 2026).

Tests used:
[1] = system: NKG2D ligands; assay: total NKG2D ligand expression on HCC cell lines, flow cytometry with NKG2D-Fc; format: cell-based, human
Excerpt: (§1) FIGS. 17A-17N relate to expression of total NKG2D ligands and PD-L1 in relation to sorafenib concentration. FIGS. 17A-17F depict flow cytometry data related to changes in total NKG2D ligand expression in the indicated tumor cell lines in response to various concentrations of sorafenib (total expression is based on the use of the NKG2D-Fc fusion, so detection is of any ligand NKG2D could bind). FIGS. 17G-17L depict flow cytometry data related to changes in PD-L1 expression in the indicated tumor cell lines in response to various concentrations of sorafenib. FIGS. 17M and 17N are line graphs that summarize the flow cytometry data.
(§2) FIGS. 18A-18T relate to expression of total NKG2D ligands and PD-L1 in relation to Interferon gamma (IFNg) concentration. FIGS. 18A-18I depict flow cytometry data related to changes in total NKG2D ligand expression in the indicated tumor cell lines in response to various concentrations of IFNg (total expression is based on the use of the NKG2D-Fc fusion, so detection is of any ligand NKG2D could bind). […]
(§3) To investigate a possible mechanism of action regarding the sensitivity of hepatocellular carcinoma cells to sorafenib, the expression of the total population of NKG2D ligands on each cell line was measured in response to various doses of sorafenib. The total population of NKG2D ligands was detected through the use of the NKG2D-Fc chimeric antibody. […]

[2] = system: PD-L1; assay: PD-L1 expression on HCC cell lines, flow cytometry; format: cell-based, human
Excerpt: as §1, §2, §3

[3] = system: HCC cells
Protocol: NKX101 cells were generated by transduction with a bicistronic virus encoding NKG2D, an intracellular OX40 costimulatory domain, CD33 signaling domain, and membrane-bound IL-15, which supports prolonged cell survival and proliferation. […] Combination with a sub-EC50 concentration of the kinase inhibitor Sorafenib (used here as a non-limiting example of an additional anti-cancer agent), an approved agent for HCC, was tested for additive cytotoxic effect with at low E:T ratios of NKX101 NK cells in vitro at 48 hrs.

[4] = system: Huh-7; assay: sorafenib dose-response against HCC cell lines; conditions: read-out: EC50 (concentration to achieve 50% cytotoxicity); FIG. 7B
[5] = system: SNU-387 cells; assay: sorafenib dose-response against HCC cell lines; conditions: read-out: EC50 (concentration to achieve 50% cytotoxicity); FIG. 7B
[6] = system: HL60 cells; assay: HL60 leukemia cell growth in co-culture with NK cells, with or without HDAC inhibitor; format: cell-based; conditions: valproic acid added to culture with NK cells expressing the NKG2D CAR (FIG. 35B)
Protocol: As discussed above, additional agents can be co-administered with engineered NK cells disclosed herein. For example, in several embodiments, histone deacetylase inhibitors are administered with engineered NK cells targeting an NKG2D ligand (or other tumor marker, such as CD123 or CD19). The leukemia cell line was grown alone as a control, co-cultured with NK cells expressing GFP, or co-cultured with NK cells expressing an NKG2D CAR as disclosed herein. By way of non-limiting example, the NKG2D CAR used in this example was NKG2D-OX40-[…]-mbIL15. […] According to additional embodiments, other HDAC inhibitors are used, such as romidepsin (e.g. FR901228), entinostat (e.g., MS-275) phenylbutyrate, belinostat (PDX101), sodium valproate, suberoylanilide hydroxamic acid, or combinations thereof.

Compound: CNC(=O)c1cc(Oc2ccc(NC(=O)Nc3ccc(Cl)c(C(F)(F)F)c3)cc2)ccn1 [sorafenib]
- change in total NKG2D ligand expression ([1]; various doses of sorafenib (FIG. 17M)): does not appear to have a substantial impact on the NKG2D ligand expression
- change in PD-L1 expression ([2]; 10 micromolar sorafenib (FIG. 17N)): many of the cell lines show an increase in PD-L1 expression
- cytotoxic effect of combination [3]: additive effect
- EC50 [4]: 7.96 µM
- EC50 [5]: 29.4 µM

Compound: CCCC(CCC)C(=O)O [valproic acid]
- HL60 cell growth [6]: synergistically interacted with the NK cells expressing the NKG2D CAR dramatically suppress HL-60 cell growth

Compound: interferon gamma: inflammatory cytokine secreted by NK cells once activated
- change in total NKG2D ligand expression ([1]; various concentrations of interferon gamma, nine HCC lines (FIG. 18S)): there does not appear to be a clear impact of interferon gamma on the expression of the total pool of NKG2D ligands
- change in PD-L1 expression ([2]; higher doses of interferon gamma (FIG. 18T)): several cell lines seem to show a trend towards increasing PD-L1 expression with the higher doses of interferon gamma
